Patent publication US6043217A, “Amide derivative of amythiamicin” (Zaidan Hojin Biseibutsu Kagaku Kenyu Kai, priority 1996, dated 2000)

Legend:
[1] = background statement on known amythiamicins; cited from earlier work
[2] = tested on: Enterobacterium faecalis W-73; test: MIC, standard serial dilution method; format: cell-based; details: Muller-Hinton agar medium, 37° C.
[3] = tested on: Staphylococcus aureus 209P JC-1; test: MIC, standard serial dilution method; format: cell-based; details: Muller-Hinton agar medium, 37° C.
[4] = tested on: Haemophilus influenzae 9334; test: MIC, standard serial dilution method; format: cell-based; details: Muller-Hinton agar medium, 37° C.
[5] = tested on: Escherichia coli NIHJ JC-2; test: MIC, standard serial dilution method; format: cell-based; details: Muller-Hinton agar medium, 37° C.
[6] = tested on: Streptococcus pyogenes Cook; test: MIC, standard serial dilution method; format: cell-based; details: Muller-Hinton agar medium, 37° C.
[7] = tested on: Branhamella catarrhalis W-0506; test: MIC, standard serial dilution method; format: cell-based; details: Muller-Hinton agar medium, 37° C.
[8] = tested on: Streptococcus pneumoniae IP 692; test: MIC, standard serial dilution method; format: cell-based; details: Muller-Hinton agar medium, 37° C.
[9] = tested on: Staphylococcus epidermidis ATCC 14990; test: MIC, standard serial dilution method; format: cell-based; details: Muller-Hinton agar medium, 37° C.
[10] = tested on: Staphylococcus aureus M 133; test: MIC, standard serial dilution method; format: cell-based; details: Muller-Hinton agar medium, 37° C.
[11] = tested on: Staphylococcus aureus M 126; test: MIC, standard serial dilution method; format: cell-based; details: Muller-Hinton agar medium, 37° C.
[12] = tested on: Staphylococcus aureus MS 15027; test: MIC, standard serial dilution method; format: cell-based; details: Muller-Hinton agar medium, 37° C.
[13] = tested on: Klebsiella pneumonia PCI 602; test: MIC, standard serial dilution method; format: cell-based; details: Klebsiella pneumonia PCI 602 (Table 3); Muller-Hinton agar medium, 37° C.
[14] = tested on: Staphylococcus aureus MS 15009/pMS 98; test: MIC, standard serial dilution method; format: cell-based; details: Muller-Hinton agar medium, 37° C.
[15] = tested on: Staphylococcus aureus MS 15009/pMS 99; test: MIC, standard serial dilution method; format: cell-based; details: Muller-Hinton agar medium, 37° C.
[16] = tested on: Streptococcus pneumoniae Type 1; test: MIC, standard serial dilution method; format: cell-based; details: Muller-Hinton agar medium, 37° C.
[17] = tested on: Haemophilus influenzae Type b; test: MIC, standard serial dilution method; format: cell-based; details: Muller-Hinton agar medium, 37° C.
[18] = tested on: Branhamella catarrhalis W-0500; test: MIC, standard serial dilution method; format: cell-based; details: Muller-Hinton agar medium, 37° C.
[19] = tested on: Staphylococcus aureus MS 15026; test: MIC, standard serial dilution method; format: cell-based; details: Muller-Hinton agar medium, 37° C.
[20] = tested on: Micrococcus luteus ATCC 9341; test: MIC, standard serial dilution method; format: cell-based; details: Muller-Hinton agar medium, 37° C.

SMILES | solubility in water [1] | Minimum growth inhibitory concentrations (MIC.) [2] [µg/mL] | Minimum growth inhibitory concentrations (MIC.) [3] [µg/mL] | Minimum growth inhibitory concentrations (MIC.) [4] [µg/mL] | Minimum growth inhibitory concentrations (MIC.) [5] [µg/mL] | Minimum growth inhibitory concentrations (MIC.) [6] [µg/mL] | Minimum growth inhibitory concentrations (MIC.) [7] [µg/mL] | Minimum growth inhibitory concentrations (MIC.) [8] [µg/mL] | Minimum growth inhibitory concentrations (MIC.) [9] [µg/mL] | Minimum growth inhibitory concentrations (MIC.) [10] [µg/mL] | Minimum growth inhibitory concentrations (MIC.) [11] [µg/mL] | Minimum growth inhibitory concentrations (MIC.) [12] [µg/mL] | Minimum growth inhibitory concentrations (MIC.) [13] [µg/mL] | Minimum growth inhibitory concentrations (MIC.) [14] [µg/mL] | Minimum growth inhibitory concentrations (MIC.) [15] [µg/mL] | Minimum growth inhibitory concentrations (MIC.) [16] [µg/mL] | Minimum growth inhibitory concentrations (MIC.) [17] [µg/mL] | Minimum growth inhibitory concentrations (MIC.) [18] [µg/mL] | Minimum growth inhibitory concentrations (MIC.) [19] [µg/mL] | Minimum growth inhibitory concentrations (MIC.) [20] [µg/mL]
CNC(=O)CC1NC(=O)c2csc(n2)-c2ccc(-c3nc(C(=O)OC)cs3)nc2-c2csc(n2)-c2csc(n2)C(C(C)C)NC(=O)CNC(=O)c2csc(n2)C(C(C)C)NC(=O)c2nc1sc2C (centres unmarked) [Amythiamicin D] | hardly soluble in water | – | – | – | – | – | – | – | – | – | – | – | – | – | – | – | – | – | – | –
CNC(=O)CC1NC(=O)c2csc(n2)-c2ccc(-c3nc(C(=O)N[C@H](CO)CCCNC(=N)N)cs3)nc2-c2csc(n2)-c2csc(n2)C(C(C)C)NC(=O)CNC(=O)c2csc(n2)C(C(C)C)NC(=O)c2nc1sc2C (some centres unmarked) [Compound No. 11] | – | > 100 | 6.25 | > 100 | > 100 | > 100 | > 100 | > 100 | > 100 | > 100 | > 100 | > 100 | > 100 | > 100 | > 100 | > 100 | > 100 | > 100 | > 100 | 100
